Assay results from ChEMBL document CHEMBL3301361, “Experimental in vitro DMPK and physicochemical data on a set of publicly disclosed compounds”.
Values after ≈ are worked out from the molar mass of the structure shown.

assay: physchem; conditions: pH 7.4 buffer

SMILES | solubility thermodynamic
CN(C)CCNS(=O)(=O)c1ccc(Nc2nccc(-c3cnc4ccccn34)n2)cc1 | 30.9 µM (≈ 13.5 µg/mL)
O=C(O)c1cc2ccc(F)cc2n1Cc1ccc(Cl)c(Cl)c1 | 182 µM (≈ 61.5 µg/mL)
O=C(c1ccccc1)C1CCN(C(=O)c2cccs2)CC1 | 79.4 µM (≈ 23.8 µg/mL)
CNC(=O)N1c2ccccc2C=Cc2ccccc21 | 380 µM (≈ 95.2 µg/mL)
Cc1cccc2c3c([nH]c12)CCN(C(=O)[C@@H]1CCCC[C@H]1C(=O)NC1(C#N)CC1)C3 | 513 µM (≈ 207 µg/mL)
O=C(c1ccc(Cl)cc1)C1CCN(C(=O)c2ccccc2)CC1 | 29.5 µM (≈ 9.67 µg/mL)
COCCOc1cc2nccc(Nc3ccc(Cl)cc3F)c2cc1OC | 33.9 µM (≈ 12.8 µg/mL)
Cc1cccc(C)c1NC(=O)N1CCC(C(=O)c2ccc(F)cc2)CC1 | 18.6 µM (≈ 6.59 µg/mL)
Cc1cc(C)cc(-c2[nH]c3sc(C(C)(C)C(=O)N4C5CCC4CC5)cc3c2CCN2CCC(C(=O)N3CCCC(O)C3)CC2)c1 (stereo not given) | 87.1 µM (≈ 55 µg/mL)
N=C(N)c1ccc2cc(C(=O)Nc3ccc(CN)cc3)cc(Nc3ncccn3)c2c1 | 151 µM (≈ 62.3 µg/mL)
Cc1ccnc(NC(=O)CSc2ccccn2)c1 | 436 µM (≈ 113 µg/mL)
CS(=O)(=O)Cc1cc(N2CCOCC2)nc(-c2cccc3[nH]ccc23)n1 | 12.9 µM (≈ 4.8 µg/mL)
Cc1cc(C)cc(-c2[nH]c3sc(C(C)(C)C(=O)N4C5CCC4CC5)cc3c2CCN2CCC(N3CCOCC3)CC2)c1 | 7.2 µM (≈ 4.24 µg/mL)
Cc1ccnc(NC(c2ccccn2)c2c(C)[nH]c3ccccc23)c1 (stereo not given) | 1.4 µM (≈ 0.46 µg/mL)
Nc1ccccc1NC(=O)c1ccc(-c2ncc(CN3CCC3)cc2Cl)cc1 | 1350 µM (≈ 530 µg/mL)
CC(C)CCn1c(Cn2c(=O)n(C3CC3)c(=O)c3ccccc32)nc2cc(CN)ccc21 | 70.8 µM (≈ 30.6 µg/mL)
O=C(c1ccc(F)cc1)C1CCN(C(=O)Nc2ccc(F)cc2)CC1 | 4.5 µM (≈ 1.55 µg/mL)
COC[C@H](C)Oc1cc(Oc2cccc(Cl)c2)cc(C(=O)Nc2ccc(C(=O)O)cn2)c1 | 1170 µM (≈ 537 µg/mL)
C#CCN(Cc1cc2c(=O)[nH]c(C)nc2cc1C)c1ccc(C(=O)NCc2cccc([N+](=O)[O-])c2)c(F)c1 | 0.1 µM (≈ 0.0514 µg/mL)
O=C(NCc1ccc(C(=O)NO)cc1)OCc1cccnc1 | 1380 µM (≈ 416 µg/mL)
CCc1ccc(-c2cc(O)c3ccccc3n2)cc1 | 4 µM (≈ 0.997 µg/mL)
Nc1ccccc1NC(=O)c1ccc(C2CCN(Cc3ccc(C(=O)NC4CC4)cc3)CC2)cc1 | 6.6 µM (≈ 3.09 µg/mL)
CC(C)c1cc(C(=O)N[C@@H](Cc2cccc(Cl)c2)C(=O)NCC#N)n(C)n1 | 47.9 µM (≈ 18.6 µg/mL)
COc1cc2c(Nc3cc(CC(=O)Nc4cccc(F)c4)[nH]n3)ncnc2cc1OCCCN1CCC[C@@H]1CO | 162 µM (≈ 89.1 µg/mL)

SMILES | solubility thermodynamic
COc1cc(N2CCOCC2)ccc1Nc1ncc(Cl)c(-c2cnc3ccccn23)n1 | 16.2 µM (≈ 7.08 µg/mL)
O=C(Nc1ccccc1)N1CCN(c2ccccn2)CC1 | 170 µM (≈ 47.9 µg/mL)
O=C(O)[C@H](Cc1cccc(F)c1)N1CCC(CN2CCC(Oc3ccc(Cl)c(Cl)c3)CC2)CC1 | 417 µM (≈ 212 µg/mL)
O=C(Nc1ccc(Cl)c(Cl)c1)N1CCN(C[C@@H]2CCCN(CCCc3ccccc3)C2)CC1 | 144 µM (≈ 70.7 µg/mL)
Nc1nnc(Cc2ccccc2)s1 | 1200 µM (≈ 230 µg/mL)
Cn1cc(C(=O)CCCCOc2ccc(C(=O)O)cc2)cc1C=O | 1200 µM (≈ 396 µg/mL)
CC(C)Oc1cc(OCc2ccccc2F)cc(C(=O)Nc2ccc(C(=O)O)cn2)c1 | 61.7 µM (≈ 26.2 µg/mL)
CCN(C(=O)Cc1ccc(S(C)(=O)=O)cc1)C1CCN(CCC(c2ccccc2)N2CCN(c3ccccc3)CC2)CC1 (stereo not given) | 692 µM (≈ 417 µg/mL)
Cc1nc(-c2c(C)n(Cc3c(F)cccc3F)c(=O)n(C[C@H](N)c3ccccc3)c2=O)cs1 | 1510 µM (≈ 709 µg/mL)
C[C@@H]1CN(C(=O)OC(C)(C)C)CCN1c1ncc(OCC2CCN(S(C)(=O)=O)CC2)cn1 | 5 µM (≈ 2.35 µg/mL)
CC(C)Oc1cccc(NC(=O)c2ccc3cc(C(=N)N)ccc3c2)c1 | 64.6 µM (≈ 22.4 µg/mL)
CCc1cc(Nc2nc(NCc3cc(-c4ccccn4)no3)ncc2Br)n[nH]1 | 3.8 µM (≈ 1.68 µg/mL)
O=S(=O)(Cc1cc(-c2ccccc2)no1)c1ccccc1 | 6.6 µM (≈ 1.98 µg/mL)
COc1cc2c(Nc3ccc(Cl)cc3F)ncnc2cc1OCCn1ccnn1 | 1.5 µM (≈ 0.622 µg/mL)
Cc1cccc(-c2ccc3c(c2)c(C(=O)C(=O)O)cn3Cc2ccc(C(C)(C)C)cc2)c1 [ALEPLASININ] | 363 µM (≈ 155 µg/mL)
COC(=O)C1=C(C#N)NC(C)=C(C(=O)OC(C)C)C1c1cccc([N+](=O)[O-])c1 (stereo not given) [NILVADIPINE] | 2.1 µM (≈ 0.809 µg/mL)
CC(C)(C)CNCCn1c(Sc2nc3cccc(Cl)c3s2)nc2c(N)ncnc21 | 0.5 µM (≈ 0.224 µg/mL)
Cc1ncc(-c2ccnc(Nc3ccc(N4CCN(S(C)(=O)=O)CC4)cc3)n2)n1C(C)C | 8.9 µM (≈ 4.05 µg/mL)
COCCNS(=O)(=O)c1ccc(Nc2nccc(-c3c(C)nc(C)n3C)n2)cc1 | 219 µM (≈ 91.1 µg/mL)
CN1CCN(CCCOc2cc(OC3CCOCC3)c3c(Nc4ccc(F)c(Cl)c4)ncnc3c2)CC1 | 38 µM (≈ 20.1 µg/mL)
COc1ccc(I)c(Sc2nc3c(N)ncnc3n2CCNCC(C)(C)C)c1 | 4 µM (≈ 2.05 µg/mL)
O=C(Nc1ccccc1)c1ccc(OCCCN2CCCC2)cc1OCc1ccccc1 | 61.7 µM (≈ 26.6 µg/mL)
Nc1nnc(-c2ccccc2F)s1 | 316 µM (≈ 61.7 µg/mL)
Cc1cc(C)cc(-c2[nH]c3sc(C(C)(C)C(=O)N4C5CCC4CC5)cc3c2CCN2CCC(CC(=O)N3CCOCC3)CC2)c1 | 1.9 µM (≈ 1.2 µg/mL)

SMILES | solubility thermodynamic
COc1c(C)c2c(c(O)c1C/C=C(\C)CCC(=O)NO)C(=O)OC2 [MYCOPHENOLIC HYDROXAMIC ACID] | 1000 µM (≈ 335 µg/mL)
C[C@H](Oc1cccc2ncnc(Nc3ccc(OCc4ccccn4)c(Cl)c3)c12)C(=O)N(C)C | 2.9 µM (≈ 1.39 µg/mL)
CS(=O)(=O)c1ccc2c3c([nH]c2c1)CCN(C(=O)[C@@H]1CCCC[C@H]1C(=O)NC1(C#N)CC1)C3 | 912 µM (≈ 427 µg/mL)
COC[C@H](C)Oc1cc(Oc2cccc(F)c2)cc(C(=O)Nc2ccc(C(=O)O)cn2)c1 | 1380 µM (≈ 608 µg/mL)
Nc1nccc(/C=C/c2ccccc2)n1 | 190 µM (≈ 37.6 µg/mL)
COc1cc2ncnc(Nc3cccc(Cl)c3F)c2cc1CN(C)C1CCNC1=O (stereo not given) | 89.1 µM (≈ 38.3 µg/mL)
CC(=O)N1CCN(CC(O)CN2CCN(CCc3c(-c4cc(C)cc(C)c4)[nH]c4sc(C(C)(C)C(=O)N5C6CCC5CC6)cc34)CC2)CC1 (stereo not given) | 214 µM (≈ 147 µg/mL)
CN(C(=O)c1ccco1)c1nnc(C23CC4CC(CC(C4)C2)C3)s1 | 3 µM (≈ 1.03 µg/mL)
NC(=O)c1ccccc1NC(=O)Nc1ccc(Cl)c(Cl)c1 | 1.5 µM (≈ 0.486 µg/mL)
COc1cc2ncnc(Nc3ccc(Oc4ccccc4)cc3)c2cc1OC | 0.3 µM (≈ 0.112 µg/mL)
COc1ccc(Cl)c(Nc2ncnc3cc(OCC4CCN(C)CC4)c(OC)cc23)c1 [AZM-475271] | 324 µM (≈ 143 µg/mL)
C[C@@H](Oc1cccc2ncnc(Nc3ccc4c(cnn4Cc4ccccn4)c3)c12)C(=O)N1CCCC1 | 110 µM (≈ 54.1 µg/mL)
Cc1ccccc1C(=O)NC1CCN(Cc2ccccc2)CC1 | 246 µM (≈ 75.7 µg/mL)
COc1cc2ncnc(Nc3ccc(Br)cc3F)c2cc1OC | 6.8 µM (≈ 2.57 µg/mL)
COCCOc1cc2c(Oc3cnn(CC(=O)Nc4cccc(OC)c4)c3)ncnc2cc1OC | 3.1 µM (≈ 1.49 µg/mL)
C[C@@H]1CN(C(=O)OC(C)(C)C)CCN1c1ncc(OCc2ccc(S(C)(=O)=O)cc2F)cn1 | 2.2 µM (≈ 1.06 µg/mL)
Cc1ccc(Oc2ccc(Nc3ncnc4cccc(O[C@H](C)C(=O)N(C)C)c34)cc2C)cn1 | 22.9 µM (≈ 10.5 µg/mL)
c1ccc2c(c1)Nc1ccccc1S2 [PHENOTHIAZINE] | 2.9 µM (≈ 0.578 µg/mL)
COc1ccc(C(=O)Nc2ccccc2)cc1 | 18.2 µM (≈ 4.14 µg/mL)
COCCOc1cc2nncc(Nc3cc(O)c(Cl)cc3F)c2cc1OC | 0.1 µM (≈ 0.0394 µg/mL)
COc1cc(N2CCNC(=O)C2)ccc1Nc1ncc(Cl)c(-c2cnc3ccccn23)n1 | 4.9 µM (≈ 2.2 µg/mL)
Oc1cc(-c2ccc3c(c2)OCO3)nc2ccccc12 | 6.2 µM (≈ 1.64 µg/mL)
CS(=O)(=O)c1cccc(Nc2nccc(Nc3c(Cl)ccc4c3OCO4)n2)c1 | 30.2 µM (≈ 12.6 µg/mL)
O=C(NCc1ccccc1)c1cccn(Cc2ccccc2)c1=O | 26.3 µM (≈ 8.37 µg/mL)

SMILES | solubility thermodynamic
O=S(=O)(CC(c1ccccc1)N1CCCCC1)c1ccc(Cl)cc1 (stereo not given) | 0.9 µM (≈ 0.328 µg/mL)
O=C(NNC(=O)c1ccccc1)c1ccccc1 | 182 µM (≈ 43.7 µg/mL)
CNC(=O)[C@@H](C)N(C)Cc1cc2c(Nc3cccc(Cl)c3F)ncnc2cc1OC | 646 µM (≈ 279 µg/mL)
Cc1ccc(C(=O)C(=O)c2ccc(C)cc2)cc1 | 2.1 µM (≈ 0.5 µg/mL)
CC1(C)Oc2ncnc(N)c2N=C1c1ccc(C23CCC(C(=O)O)(CC2)CC3)cc1 | 3.2 µM (≈ 1.3 µg/mL)
CCCNC(=O)Nc1ccc(Oc2ncnc3cc(OC)c(OC)cc23)cc1Cl [KRN-633] | 0.2 µM (≈ 0.0834 µg/mL)
O=C(O)c1cc2c(F)cccc2n1Cc1ccc(Cl)c(Cl)c1 | 525 µM (≈ 177 µg/mL)
O=C(c1nnsc1S(=O)(=O)c1ccc(Cl)cc1)N1CCOCC1 | 17 µM (≈ 6.36 µg/mL)
COc1ccc(CNC(=O)c2ccc(Oc3ccc(C#C[C@]4(O)CN5CCC4CC5)cc3)cc2)nc1 | 347 µM (≈ 168 µg/mL)
Nc1ccccc1NC(=O)c1ccc(C2CCN(CCC(=O)Nc3ccccc3F)CC2)cc1 | 112 µM (≈ 51.7 µg/mL)
CN(c1ccnc(Nc2cc(N3CCOCC3)nc(N3CCOCC3)c2)n1)c1cccc2[nH]ncc12 | 0.8 µM (≈ 0.39 µg/mL)
COc1cc2c(Nc3ccc(Oc4ccccc4)cc3)c(C#N)cnc2cc1OCCCN1CCOCC1 | 0.9 µM (≈ 0.46 µg/mL)
Cc1cc(C)cc(-c2[nH]c3sc(C(C)(C)C(=O)N4C5CCC4CC5)cc3c2CCN2CCN(CC(O)CN3CCNCC3)CC2)c1 (stereo not given) | 427 µM (≈ 276 µg/mL)
CNC(=O)[C@@H](NC(=O)[C@H](CC(C)C)[C@H](OCc1cccc2cccnc12)C(=O)NO)C(C)(C)C | 1000 µM (≈ 473 µg/mL)
N#CC1(NC(=O)[C@@H]2CCCC[C@H]2C(=O)N2CCc3[nH]c4ccc(C(F)(F)F)cc4c3C2)CC1 | 74.1 µM (≈ 34 µg/mL)
COc1ccc(NC(=O)c2ccccn2)cc1 | 676 µM (≈ 154 µg/mL)
CC(C)C(NC(=O)c1cnoc1C(C)(C)C)C(=O)c1ccc(C#N)cc1 (stereo not given) | 20 µM (≈ 7.07 µg/mL)
CCn1cc(NC(=O)Cc2ccc(Oc3ccnc4ccc(OC)cc34)cc2OC)cn1 | 7.1 µM (≈ 3.07 µg/mL)
COc1ccccc1Oc1coc2cc(O)ccc2c1=O | 12.9 µM (≈ 3.67 µg/mL)
O=S(=O)(NCc1cc(-c2ccccc2Cl)no1)c1ccc(Cl)cc1 | 3.1 µM (≈ 1.19 µg/mL)
CC(C)(C)C(O)C(Cc1ccccc1Cl)n1cncn1 (stereo not given) | 398 µM (≈ 117 µg/mL)
C[C@@H](Oc1cccc2ncnc(Nc3ccc4c(cnn4Cc4cscn4)c3)c12)C(N)=O | 8.7 µM (≈ 3.88 µg/mL)
Cc1ccc(Oc2ccc(Nc3ncnc4cccc(O[C@@H](C)C(=O)N5CCOCC5)c34)cc2C)cn1 | 31.6 µM (≈ 15.8 µg/mL)
